One compound from article PMC3984256, “A PCNA-Derived Cell Permeable Peptide Selectively Inhibits Neuroblastoma Cell Growth” (PLoS ONE, 2014) can be followed below.

Experiment [1] has as its system SV40 T-antigen-dependent DNA replication, nuclear extracts from SK-N-BE(2)c cells. In words: SV40 T-antigen-dependent DNA replication assay in vitro. The format is biochemical. Particulars: nuclear extracts incubated with peptide 20 min; 32P dCTP incorporation, normalized to PBS, triplicates. On the procedure:
The assay was performed essentially as described, except that nuclear extracts from SK-N-BE(2)c cells were used in the assay.
Figure 3 Inhibition of DNA replication and induction of S-phase arrest and apoptosis by R9-caPep. a) SK-N-BE(2)c cells were pulsed in 10 µM of BrdU for 30 min after being pre-treated with R9-caPep or R9-srbPep for 7.5 h. The relative abundances of BrdU-positive cells in triplicates were averaged and graphed plus/minus standard deviations. b) Nuclear extracts from SK-N-BE(2)c cells were incubated with the indicated concentrations of R9-caPep (grey bars) or R9-srbPep (black bars) for 20 min. SV40 T-antigen was then added to the nuclear extracts along with premixed reaction buffer containing ^32P dCTP. […] The polymerized radioactivity was measured by a scintillation counter. The T-antigen-dependent incorporation of ^32P dCTP was calculated by subtracting T-antigen-independent radioactivity from the total radioactivity and was normalized to the T-antigen-dependent radioactivity in PBS-treated samples. Triplicates of normalized T-antigen-dependent radioactivity for each treatment condition were averaged and graphed plus/minus standard deviations. c) SK-N-BE(2)c and non-malignant 7SM0032 cells were fixed and stained with propidium iodide (PI) after being treated with the indicated concentrations of R9-caPeptide for 48 h. […] Cells were fixed and analyzed by a TUNEL assay. […]

Another experiment concerns ãH2A.X level. Kind of experiment: γH2A.X western blot after γ-irradiation. Type of experiment: cell-based. The conditions noted are these: 30 µM peptide, 2 h pretreatment, 5 Gy. On the procedure: To study DNA damage and repair, attached cells were pretreated with the peptides for 2 h and were then ã-irradiated (5 Gy). After irradiation, cells were cultured in the presence of the peptides for the indicated time. For analyzing ãH2A.X foci formation, cells were fixed in a solution of methanol and acetone (70%:30% v/v) for 15 min at −20°C. The slides were air-dried for storage and rehydrated in PBS prior to immunostaining. Cells were stained by a mouse monoclonal antibody specific to ãH2A.X (Millipore, Billerica, MA) followed by an Alexa Fluor 488 conjugated anti-mouse IgG antibody. For analyzing Rad51 foci formation, cells were fixed in PBS buffered 4% paraformaldehyde at room temperature for 15 min. After being washed twice by PBS, cells were permeabilized in PBS containing 0.5% triton for 15 min on ice. The fixed and permeabilized cells were stained with a rabbit polyclonal antibody raised against the human Rad51 (Santa Cruz) followed by an Alexa Fluor 488 conjugated anti-rabbit IgG antibody. Stained cells were visualized and imaged by a confocal microscope.
Cell extracts were prepared by dissolving cell pellets directly into the Laemmli sample buffer and resolved in a 4–12% SDS polyacrylamide gel. Resolved proteins were blotted onto a nitrocellulose membrane. The membrane was blocked with 5% nonfat dry milk and incubated with an antibody specific to ãH2A.X (Millipore), total H2A.X (Cell Signaling Technology, Danvers, MA), MYCN (Cell Signaling Technology), or actin (Sigma) in the blocking buffer. After incubation with peroxidase-conjugated secondary antibodies, the protein of interest was detected using an ECL kit purchased from GE Healthcare.
(Immunoblotting shows a protein as a band on a membrane.)

Structures are written as SMILES. Where a SMILES comes first, the peptide text is derived from it. [ ]: non-standard residue; d: D form.

In the case of `CC[C@H](C)[C@H](NC(=O)CNC(=O)[C@H](CC(C)C)NC(=O)[C@H](CS)NC(=O)[C@H](CS)NC(=O)[C@@H](CCCNC(=N)N)NC(=O)[C@@H](CCCNC(=N)N)NC(=O)[C@@H](CCCNC(=N)N)NC(=O)[C@@H](CCCNC(=N)N)NC(=O)[C@@H](CCCNC(=N)N)NC(=O)[C@@H](CCCNC(=N)N)NC(=O)[C@@H](CCCNC(=N)N)NC(=O)[C@@H](CCCNC(=N)N)NC(=O)[C@H](N)CCCNC(=N)N)C(=O)N1CCC[C@H]1C(=O)N[C@@H](CCC(=O)O)C(=O)N[C@@H](CCC(N)=O)C(=O)N[C@@H](CCC(=O)O)C(=O)N[C@@H](Cc1ccc(O)cc1)C(=O)O` [R9-caPep] (H-[dR][dR][dR][dR][dR][dR][dR][dR][dR]CCLGIPEQEY-OH; N-terminus and C-terminus assumed), the “SV40 T-antigen-dependent DNA replication” value in experiment [1] is listed as “inhibited SV40 T-antigen-dependent DNA replication in vitro”. For the same compound, in the experiment with ãH2A.X level, the “ãH2A.X level within 30 min after irradiation” value was “increased within 30 min following ã-irradiation in cells treated with either peptide”. In addition, the “ãH2A.X level 48 h after irradiation” value in the experiment on ãH2A.X level (48 h) was “remained elevated”.
